# Assay results: patent US9580426B2, “Compounds that expand hematopoietic stem cells” (Novartis AG, priority 2008, dated 2017)
# Experiments:
# [1] = target: T1, AHR (Mus musculus, UniProt P30561); assay: Dioxin induced AHR dependent transcription, murine cells; assay type: cell-based
# T1 construct: endogenous in cells; host or cells: unnamed murine cells
# T1 sequence (P30561 10-848): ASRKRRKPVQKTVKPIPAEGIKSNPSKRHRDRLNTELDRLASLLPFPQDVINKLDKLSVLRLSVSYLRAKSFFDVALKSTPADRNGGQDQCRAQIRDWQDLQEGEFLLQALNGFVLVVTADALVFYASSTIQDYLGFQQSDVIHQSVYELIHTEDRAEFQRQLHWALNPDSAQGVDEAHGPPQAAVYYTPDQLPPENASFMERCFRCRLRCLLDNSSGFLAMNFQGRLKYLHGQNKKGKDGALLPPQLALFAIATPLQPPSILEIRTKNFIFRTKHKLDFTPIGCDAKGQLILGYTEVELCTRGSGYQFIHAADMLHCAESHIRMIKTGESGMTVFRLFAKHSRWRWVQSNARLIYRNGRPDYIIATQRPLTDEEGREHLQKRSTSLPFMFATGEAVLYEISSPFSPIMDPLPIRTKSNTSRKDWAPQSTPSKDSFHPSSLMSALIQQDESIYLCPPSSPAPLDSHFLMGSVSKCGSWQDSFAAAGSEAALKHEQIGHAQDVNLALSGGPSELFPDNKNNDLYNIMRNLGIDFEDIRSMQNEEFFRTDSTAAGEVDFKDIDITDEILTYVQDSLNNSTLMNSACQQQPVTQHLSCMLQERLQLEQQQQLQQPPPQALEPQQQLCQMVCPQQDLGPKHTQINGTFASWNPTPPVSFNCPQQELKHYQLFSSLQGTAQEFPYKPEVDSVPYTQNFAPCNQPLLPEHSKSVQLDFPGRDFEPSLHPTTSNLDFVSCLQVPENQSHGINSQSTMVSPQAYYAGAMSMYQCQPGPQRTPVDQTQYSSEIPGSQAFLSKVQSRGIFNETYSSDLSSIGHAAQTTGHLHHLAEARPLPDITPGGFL
# Description: Further, the ability of Example 1 to block 2,3,7,8-tetrachlorodibenzo-p-dioxin (TCDD, dioxin)-mediated CYP1B1 mRNA expression by qPCR in mPB-derived CD34^+ cells was determined. Treatment with TCDD (3 nM) caused a 4.5-fold increase in the level of CYP1B1 mRNA compared with the vehicle control (0.01% toluene). […] To determine the effects of Example 1 in AHR transcription the ability of Example 1 to inhibit a dioxin-induced AHR dependent luciferase reporter gene assay was tested.
# [2] = tested on: mPB CD34+ HSCs; assay: Cobblestone area-forming cell (CAFC) assay; assay type: cell-based, human; conditions: 1 micromolar; mPB CD34+ HSCs after 5 days of culture
# Description: Cobblestone area-forming cell (CAFC) assays: The FBMD-1 stromal cells are maintained in 25-cm^2 flasks and are trypsinized after ⅓ confluence. Since this non-transformed line ages, and therefore gradually loses its potential to support CAFC growth at late stages, all feeders are used below passage 20. For supporting CAFC growth in 96-well plates, 1×10^3 stromal cells are seeded per well. The cultures are maintained in Iscove's medium supplemented with 10% fetal calf serum (FCS), 2.5% horse serum (HS), 1% L-glutamine, 1% penicillin-streptomycin, and 1×10^−5 M hydrocortisone at 37° C. in a humidified atmosphere of 5% CO2 in air. After stromal layers reach confluency, they are inoculated with CD34^+ HSCs that have been cultured for 5 days with vehicle or a compound of the invention. MNCs are added at 8 serial 1:3 dilutions (starting at 25,000 cells/well), with 10 wells for each cell dose. The dilutions with wells with at least one phase-dark hematopoietic clone (cobblestone area) of at least five cells beneath the stromal layer are determined at week 4. […]
# [3] = tested on: mPB and CB derived HSCs; assay: Transplantation of cultured human CD34+ cells into NOD/SCID mice (engraftment); assay type: in vivo, human cells in NOD/SCID mice; conditions: HSCs cultured at 1 micromolar, mPB 4 days, CB 21 days
# Description: Transplantation of human CD34^+ cells into NOD.CB 17-Prkdc^scid mice (NOD/SCID): To assess the in vivo repopulating capacity of CD34^+ cells and their cultured progeny, uncultured CD34^+ or the progenies of cultured CD34^+ cells after 4 days (mPB) or 21 days (CB) with vehicle or a test compound were injected intravenously via the retro-orbital route into sub-lethally irradiated (3.0 Gy) 8- to 10-week-old NOD/SCID (for mPB HSC experiments) or NOD/SCIDgc−/− (for CB HSC experiments) mice. To monitor engraftment blood was drawn weekly via the retro-orbital and treated with erythrocyte lysis solution (Qiagen, Valencia, Calif.) to remove red blood cells, washed with staining media, and analyzed by flow Cytometry. Engraftment was measured by detection of anti-human CD45^+ cells in the blood. The mice are sacrificed at 10 weeks post-transplantation; BM is collected from both femurs and tibiae. BM cells are washed in staining media and stained with anti-human antibodies. Following incubation, the suspension is treated with erythrocyte lysis solution (Qiagen, Valencia, Calif.) to remove red blood cells, washed with staining media, and analyzed by flow Cytometry, as described earlier.
# [4] = tested on: mPB-derived CD34+ cell; assay: 7 day culture with AHR antagonists, expansion of CD34+ cells; assay type: cell-based, human; conditions: 0.75 μM; 7 days
# Description: To further explore the role of AHR signaling in HSCs two other AHR antagonists (alpha-naphthoflavone and CH-223191) were tested. Both compounds lead to dose dependent increases in the number of CD34^+ cells when cultured with mPB-derived CD34^+ cell for 7 days: inclusion of 1 μM CH223191 afforded a 2.2-fold expansion of CD34^+ cells; 0.75 μM α-naphthoflavone afforded a 1.9-fold expansion of CD34^+ cells while 0.75 μM Example 1 afforded a 3.4-fold expansion of total CD34^+ cells. […] Forty-eight hours following transduction, CD34+GFP^+ cells were purified by cell sorting and the levels of AHR were determined by qPCR. Both AHR targeting shRNAs led to decreases in AHR expression following transduction (81% with sh111 and 51% with sh242). These decreases were not seen in cells lacking GFP or in cells transduced with control virus.
compound,measurement,setting,value
"CC(C)n1cnc2c(NCCc3ccc(O)cc3)nc(-c3csc4ccccc34)nc21 [Example 1, 4-(2-(2-(benzo[b]thiophen-3-yl)-9-isopropyl-9H-purin-6-ylamino)ethyl)phenol]",agonist activity (AHR dependent transcription),[1],only weak agonist activity
same,inhibition of dioxin induced transcription,[1],only weakly inhibited
same,increase in the number of cobblestone area forming cells compared with DMSO control,[2],greater than 2 fold
same,percentage of human cells 10 weeks after engraftment,[3],statistically significant increase
same,expansion of CD34+ cells,[4],3.4 fold
